What is called Kd is a measure of binding affinity in units of concentration.

Each structure is given as a SMILES string.

1 compound from PMC9986241 (Signal Transduction and Targeted Therapy, 2023) can be followed below.

Holding throughout (test): ITC assay
What all share (type): binding
Common to all, as to conditions: PBS (0.1% DMSO, pH = 7.4), read-out: affinity (Kd)
On the technique in general: ITC needs no label: the signal is the heat of the interaction.

Assay [1] concerns the target T1, CRAF (306-end) (Homo sapiens, UniProt P04049).
T1 construct: purchased
As for the experimental part: (§1) 293 T cells were transfected with plasmids of pcDNA3.1-3×Flag-C-MAP2K1/MAP2K1 (K97A, M146A), MAP2K2/MAP2K1 (K101A, M150A), or CRAF/CRAF (K375A). […]
(§2) The ITC experiment was performed on a MicroCal PEAQ-ITC. […] All proteins and erianin were diluted with PBS (0.1% DMSO, pH = 7.4), and deionized water was injected into the reference cell as a heat balance control. After 19 times titrations of erianin into the sample cell at a constant rate of 150 s, the titration curve was fitted with nonlinear least squares estimation model using Microcal ORIGIN V7.0.

For assay [2], the target named is MEK1 full length (Homo sapiens, UniProt Q02750). How it is done:
as §1, §2

The target in assay [3] is MEK2 full length (Homo sapiens, UniProt P36507). How it is done:
as §1, §2

Chain of MEK1 full length (Q02750 whole entry): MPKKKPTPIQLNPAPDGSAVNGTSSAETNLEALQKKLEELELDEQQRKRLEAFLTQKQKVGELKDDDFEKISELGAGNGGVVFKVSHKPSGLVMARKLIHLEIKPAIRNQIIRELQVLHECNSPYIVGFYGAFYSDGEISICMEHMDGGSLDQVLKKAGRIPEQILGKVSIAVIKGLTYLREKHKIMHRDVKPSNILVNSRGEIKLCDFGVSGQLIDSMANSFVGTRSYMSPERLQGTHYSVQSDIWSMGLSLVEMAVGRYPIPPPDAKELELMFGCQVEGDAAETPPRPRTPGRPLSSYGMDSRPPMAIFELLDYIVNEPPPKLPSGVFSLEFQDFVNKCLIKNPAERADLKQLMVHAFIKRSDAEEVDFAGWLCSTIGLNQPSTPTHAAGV
Chain of MEK2 full length (P36507 whole entry): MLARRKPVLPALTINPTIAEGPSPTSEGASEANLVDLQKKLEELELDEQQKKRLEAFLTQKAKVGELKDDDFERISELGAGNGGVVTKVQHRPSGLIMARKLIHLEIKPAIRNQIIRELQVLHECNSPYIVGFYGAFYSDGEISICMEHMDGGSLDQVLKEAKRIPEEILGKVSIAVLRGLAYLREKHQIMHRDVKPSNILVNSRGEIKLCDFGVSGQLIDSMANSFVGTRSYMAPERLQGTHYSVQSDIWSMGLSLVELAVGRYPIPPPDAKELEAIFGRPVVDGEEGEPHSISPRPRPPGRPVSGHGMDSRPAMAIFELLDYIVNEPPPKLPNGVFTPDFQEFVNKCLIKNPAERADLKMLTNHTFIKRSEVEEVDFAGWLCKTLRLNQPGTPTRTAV
T1 sequence (P04049 306-648 limits assumed): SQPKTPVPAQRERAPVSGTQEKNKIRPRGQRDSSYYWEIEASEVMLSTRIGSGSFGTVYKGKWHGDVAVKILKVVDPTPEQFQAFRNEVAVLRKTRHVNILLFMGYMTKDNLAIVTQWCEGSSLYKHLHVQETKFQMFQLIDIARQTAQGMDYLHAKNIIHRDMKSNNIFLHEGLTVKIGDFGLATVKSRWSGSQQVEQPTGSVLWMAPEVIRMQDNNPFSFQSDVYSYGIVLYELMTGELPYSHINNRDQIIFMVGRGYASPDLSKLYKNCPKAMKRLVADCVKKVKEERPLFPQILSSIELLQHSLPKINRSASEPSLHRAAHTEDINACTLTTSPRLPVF

Consider `COc1ccc(CCc2cc(OC)c(OC)c(OC)c2)cc1O` [Erianin], for which the results for the Kd in assay [1], in assay [2] and in assay [3] were 46 µM, 59.3 µM and 101 µM, respectively.
